Data reported in patent publication US7678781B2, “11-phosphorous steroid derivatives useful as progesterone receptor modulators” (Janssen Pharmaceutica N.V., priority 2006, dated 2010).

Assays:
[1] = test system: T47D human breast cancer cells; assay: Alkaline phosphatase assay in human breast cancer cell line T47D; assay type: cell-based; conditions: 24 h, read-out: T47D IC50 (nM)
Protocol: Alkaline Phosphatase Assay in Human Breast Cancer Cell Line T47D
T47D human breast cancer cells were grown in RPMI medium without phenol red (Invitrogen) containing 10% (v/v) heat-inactivated fetal bovine serum (FBS; Hyclone), 1% (v/v) penicillin-streptomycin (Invitrogen), 1% (w/v) glutamine (Invitrogen), and […] insulin (Sigma). Incubation conditions were 37° C. in a humidified 5% (v/v) carbon dioxide environment.
The cells were plated in 96-well tissue culture plates at 10,000 cells per well in assay medium [RPMI medium without phenol red (Invitrogen) containing 5% (v/v) charcoal-treated FBS (Hyclone) and 1% (v/v) penicillin-streptomycin (Invitrogen)]. Two days later, the medium was decanted and test compound or control were added at a final concentration of 0.1% (v/v) dimethyl sulfoxide in fresh assay medium. Twenty-four hours later, an alkaline phosphatase assay was performed using a SEAP kit (BD Biosciences Clontech, Palo Alto, Calif.). Briefly, the medium was decanted and the cells were fixed for 30 minutes at room temperature with 5% (v/v) formalin (Sigma). The cells were washed once with room temperature Hank's buffered saline solution (Invitrogen). Equal volumes (0.05 mL) of 1× Dilution Buffer, Assay Buffer and 1:20 substrate/enhancer mixture were then added. After 1 hour incubation at room temperature in the dark, the lysate was transferred to a white 96-well plate (Dynex) and luminescence was read using a LuminoSkan Ascent (Thermo Electron, Woburn, Mass.).

[2] = test system: A549 Human lung carcinoma cells; assay: Transient transfection and Steady Glo luciferase assay in A549 cells with dexamethasone challenge; assay type: cell-based; conditions: transfected A549 cells, challenged with dexamethasone (glucocorticoid agonist), 24 h
Protocol: Transient Transfection and Steady Glo Luciferase Assay
A549 Human lung carcinoma cells were grown in F-12K Nutrient Mixture containing 10% (v/v) fetal bovine serum (FBS; Invitrogen), 2 mM glutamine and 0.15% sodium dicarbonate(Invitrogen).
A549 cells were split 1 to 3 in 175 cm tissue culture flask. The cells were incubated at 37° C. in CO2 incubator until the cells were 95% confluent (typically 24-30 hours).
The following solutions were prepared in sterile tubes: (a) Solution A: 1.5 μg/ml of DNA in 8.5 ml OPTI-MEM I Reduced Serum Medium. (GIBCO cat# 31985) and (b) Solution B: 6 μl/ml of DMRIE-C Reagent into […] OPTI-MEM I. The two solutions were combined and mixed gently, then incubated at room temperature for 40 minutes.
The A549 cells prepared above were washed with […] of OPTI-MEM I. The medium was removed and 17 ml of the lipid-DNA complex solution was overlayed onto cells. The cells ere then incubated for 16 h at 37° C. in CO2 incubator. The DNA-containing medium was removed and 30 ml of growth medium was added. (5% Charcoal treated FBS) After 5-6 h, the cells were seeded in a 96 well plate and the cells incubated overnight at 37° C. in CO2 incubator.
To each well was then added 5 μl of test compounds and the cells incubated at 37° C. for 10 min. […] A 150 μL sample from each well was then transferred into a DYNEX Microlitel plate and read on Top-counter.

Structure (SMILES): C=C1CCO[C@]12CC[C@H]1[C@@H]3CCC4=CC(=O)CCC4=C3[C@@H](c3ccc(P(C)(C)=O)cc3)C[C@@]12C [Compound 4]
- IC50 [1]: 3 nM

Structure (SMILES): C=C1CCO[C@]12CC[C@H]1[C@@H]3CCC4=CC(=O)CCC4=C3[C@@H](c3ccc(P(=O)(Oc4ccccc4)Oc4ccccc4)cc3)C[C@@]12C [Compound 37]
- IC50 [1]: 3.3 nM
- IC50 [2]: 34.3 nM

Structure (SMILES): C[C@]12C[C@H](c3ccc(P(=O)(Oc4ccccc4)Oc4ccccc4)cc3)C3=C4CCC(=O)C=C4CC[C@H]3[C@@H]1CCC2=O [Compound 33]
- IC50 [1]: > 1000 nM
- IC50 [2]: 217 nM
